This is an account of results in ChEMBL document CHEMBL4732086, “Targeting nuclear protein TDP-43 by cell division cycle kinase 7 inhibitors: A new therapeutic approach for amyotrophic lateral sclerosis” (Eur J Med Chem, 2021).

For experiment [1], the target named is CDC7/DBF4 (Cell division cycle 7-related protein kinase/Activator of S phase kinase) (Homo sapiens) (UniProt Q9UBU7+O00311). In words: Inhibition of recombinant human CDC7/Dbf4 expressed in baculovirus infected Sf9 insect cells assessed as inhibition of fluorescein labelled substrate phosphorylation in presence of ATP at 10 uM measured after 60 mins by TR-FRET assay. In general terms: In TR-FRET formats the signal depends on donor and acceptor labels being close together.

For experiment [2], the target named is CDC7/DBF4 (Cell division cycle 7-related protein kinase/Activator of S phase kinase) (Homo sapiens, UniProt O00311). In words: Inhibition of recombinant human CDC7/Dbf4 expressed in baculovirus infected Sf9 insect cells assessed as inhibition of fluorescein labelled substrate phosphorylation in presence of ATP measured after 60 mins by TR-FRET assay.
Experiment [3] deals with Cell division cycle 7-related protein kinase (Homo sapiens) (UniProt O00311). In words: Inhibition of human CDC7 in human SH-SY5Y cells assessed as prevention of ethacrynic acid-induced cell death preincubated for 1 hr followed by incubation with ethacrynic acid for 24 hrs measured at 10 uM by MTT assay relative to control. It is filed as cell-based. (In general: Tetrazolium assays rely on reduction of a dye to a coloured formazan, in cell work by metabolically active cells.)

Active and inactive are the calls of the source. The calls are words filed in the database; no cut-off is given here.

Chain of CDC7/DBF4 (Cell division cycle 7-related protein kinase/Activator of S phase kinase) (Q9UBU7 whole entry): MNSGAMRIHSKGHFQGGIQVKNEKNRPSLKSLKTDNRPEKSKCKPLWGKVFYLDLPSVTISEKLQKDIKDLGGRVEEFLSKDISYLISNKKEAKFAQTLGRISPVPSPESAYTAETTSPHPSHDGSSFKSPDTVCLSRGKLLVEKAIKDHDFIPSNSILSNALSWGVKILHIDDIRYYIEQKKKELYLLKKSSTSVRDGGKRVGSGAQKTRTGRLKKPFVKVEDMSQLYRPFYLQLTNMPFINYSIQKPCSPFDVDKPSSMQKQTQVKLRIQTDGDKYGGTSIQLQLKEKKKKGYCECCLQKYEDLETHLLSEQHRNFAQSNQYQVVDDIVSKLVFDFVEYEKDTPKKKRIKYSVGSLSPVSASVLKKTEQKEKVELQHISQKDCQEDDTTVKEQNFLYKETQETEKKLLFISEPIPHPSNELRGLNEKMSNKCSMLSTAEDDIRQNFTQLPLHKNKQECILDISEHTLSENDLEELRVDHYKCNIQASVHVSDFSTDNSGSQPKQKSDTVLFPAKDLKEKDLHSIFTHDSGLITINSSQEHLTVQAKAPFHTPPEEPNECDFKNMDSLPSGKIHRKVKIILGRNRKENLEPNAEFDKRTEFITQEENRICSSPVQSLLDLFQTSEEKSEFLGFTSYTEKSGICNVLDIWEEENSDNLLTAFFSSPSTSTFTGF
Chain of CDC7/DBF4 (Cell division cycle 7-related protein kinase/Activator of S phase kinase) (O00311 whole entry): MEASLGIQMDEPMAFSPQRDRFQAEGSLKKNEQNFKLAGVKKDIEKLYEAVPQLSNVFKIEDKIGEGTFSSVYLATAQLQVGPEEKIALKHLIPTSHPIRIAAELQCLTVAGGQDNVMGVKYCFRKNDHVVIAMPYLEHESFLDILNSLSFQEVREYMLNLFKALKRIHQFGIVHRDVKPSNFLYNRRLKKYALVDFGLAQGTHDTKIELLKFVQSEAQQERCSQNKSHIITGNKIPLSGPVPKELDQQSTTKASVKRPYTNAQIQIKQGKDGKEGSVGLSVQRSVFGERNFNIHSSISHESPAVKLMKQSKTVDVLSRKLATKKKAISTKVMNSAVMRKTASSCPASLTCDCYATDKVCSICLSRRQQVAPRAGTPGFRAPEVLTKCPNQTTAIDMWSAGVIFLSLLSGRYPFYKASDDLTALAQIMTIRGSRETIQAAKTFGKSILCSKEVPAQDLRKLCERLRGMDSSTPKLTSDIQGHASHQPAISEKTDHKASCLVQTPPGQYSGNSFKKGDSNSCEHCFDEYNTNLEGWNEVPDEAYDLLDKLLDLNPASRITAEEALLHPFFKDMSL
Chain of CDC7/DBF4 (Cell division cycle 7-related protein kinase/Activator of S phase kinase) (Homo sapiens) (O00311 whole entry, looked up): as the sequence (O00311 whole entry) above
Chain of CDC7/DBF4 (Cell division cycle 7-related protein kinase/Activator of S phase kinase) (Homo sapiens) (Q9UBU7 whole entry, looked up): as the sequence (Q9UBU7 whole entry) above
Chain of Cell division cycle 7-related protein kinase (Homo sapiens) (O00311 whole entry, looked up): as the sequence (O00311 whole entry) above

As usually defined, the inhibition is the percentage by which the read-out fell short of the control. As for `c1ccc(CSc2ncnc3c2ncn3Cc2ccccc2)cc1`, the inhibition in experiment [1] was found to be 0%.
In general, IC50 refers to the concentration at which inhibition is half-maximal. For the molecule `Brc1cccc(CSc2ncnc3[nH]cnc23)c1`, in experiment [2], the IC50 turned out to be 0.13 µM.
Consider `Ic1ccc(CSc2ncnc3[nH]cnc23)cc1`, for which the IC50 in experiment [2] worked out at 0.3 µM. The inhibition entry in experiment [3] was “Active”.
With `Brc1ccc(Sc2ncnc3[nH]cnc23)cc1`, in experiment [2], the IC50 is 1.38 µM.
The same measure, in the same setting: for `Brc1cccc(CSc2ncnc3[nH]ccc23)c1` the value was 0.39 µM; for `Clc1cccc(CNc2ncnc3nc[nH]c23)c1`, 3.06 µM.
Turning to `Clc1ccc(CCSc2ncnc3[nH]cnc23)cc1`, the half-maximal inhibitory concentration (IC50) in experiment [2] turned out to be 0.14 µM. Moreover, in experiment [3], the inhibition entry is “Active”.
As for `Clc1cccc(CCSc2ncnc3c2ncn3CCc2cccc(Cl)c2)c1`, in experiment [1], the inhibition stood at 8%.
Still for that read-out and setting: the result for `Clc1ccccc1CCSc1ncnc2c1ncn2CCc1ccccc1Cl` reads 4%.
Take `Clc1ccccc1CSc1ncnc2[nH]cnc12`: the IC50 in experiment [2] came out at 0.09 µM. Also, in experiment [3], the inhibition result is “Active”.
For the molecule `COc1ccc(Sc2ncnc3[nH]cnc23)cc1`, the IC50 in experiment [2] is 1.72 µM.
As to `Clc1ccccc1CCSc1ncnc2[nH]cnc12`, in experiment [2], the IC50 came to 0.19 µM. Further, in experiment [3], the inhibition entry is “Active”.
`FC(F)(F)c1ccccc1CSc1ncnc2c1ncn2Cc1ccccc1C(F)(F)F`: in experiment [1], the inhibition is 9%.
Turning to `Brc1ccc(COc2ncnc3[nH]cnc23)cc1`, the concentration for half-maximal inhibition (IC50) in experiment [2] worked out at 0.91 µM. Also, the inhibition entry in experiment [3] is “Active”.
`c1ccc(CSc2ncnc3[nH]ccc23)cc1`: the IC50 in experiment [2] is 0.23 µM. Also, the inhibition entry in experiment [3] was “Active”.
On to `FC(F)(F)c1ccccc1CSc1ncnc2[nH]cnc12`, for which the IC50 in experiment [2] was 0.25 µM. Moreover, in experiment [3], the inhibition result was “Active”.
On to `Clc1ccc(CSc2[nH]cnc3ncnc2-3)cc1`, for which the IC50 in experiment [2] was 0.18 µM. Moreover, the inhibition result in experiment [3] is “Active”.
As to `Clc1ccccc1CSc1ncnc2c1ncn2Cc1ccccc1Cl`, the inhibition in experiment [1] stood at 7%.
With `Clc1cccc(COc2ncnc3[nH]cnc23)c1`, in experiment [2], the 50% inhibitory concentration (IC50) stood at 0.19 µM. Besides, the inhibition result in experiment [3] is “Active”.
For the molecule `CSc1ccc(CSc2ncnc3[nH]cnc23)cc1`, the IC50 in experiment [2] came to 0.14 µM. Besides, the inhibition result in experiment [3] was “Active”.
Turning to `Clc1cccc(CSc2ncnc3c2ncn3Cc2cccc(Cl)c2)c1`, in experiment [1], the inhibition was 30%.
As to `O=C(CSc1[nH]cnc2ncnc1-2)c1ccc(Cl)cc1`, the IC50 in experiment [2] stood at 4.15 µM.
As to `Ic1cccc(CSc2ncnc3[nH]cnc23)c1`, in experiment [2], the IC50 worked out at 0.08 µM. In experiment [3], the inhibition entry was “Active”.
Take `Fc1cccc(CSc2ncnc3[nH]cnc23)c1`: the IC50 in experiment [2] was 0.36 µM. Moreover, in experiment [3], the inhibition entry was “Active”.
Regarding `O=[N+]([O-])c1ccc(CSc2ncnc3[nH]cnc23)cc1`, the IC50 in experiment [2] was found to be 0.13 µM. The inhibition result in experiment [3] is “Active”.
As to `FC(F)(F)c1ccc(CSc2ncnc3[nH]cnc23)cc1`, the IC50 in experiment [2] worked out at 0.36 µM. For the same molecule, the inhibition result in experiment [3] was “Active”.
As to `c1ccc(CSc2ncnc3sccc23)cc1`, in experiment [1], the inhibition is 18%.
Take `O=[N+]([O-])c1cccc(CSc2ncnc3[nH]cnc23)c1`: the IC50 in experiment [2] came to 0.19 µM.
`Brc1ccc(CSc2[nH]cnc3ncnc2-3)cc1`: the IC50 in experiment [2] was determined as 0.44 µM. Also, the inhibition result in experiment [3] is “Active”.
In the case of `O=C(CSc1[nH]cnc2ncnc1-2)c1ccc([N+](=O)[O-])cc1`, the IC50 in experiment [2] is 3.11 µM.
For `N#Cc1ccc(CSc2ncnc3[nH]cnc23)cc1`, the IC50 in experiment [2] stood at 0.29 µM.
In the case of `O=C(CSc1ncnc2[nH]cnc12)c1ccc(Br)cc1`, the IC50 in experiment [2] was 2.12 µM.
For the molecule `OCc1ccc(CSc2ncnc3[nH]cnc23)cc1`, the IC50 in experiment [2] came to 0.3 µM.
Regarding `Clc1ccc(CCSc2ncnc3c2ncn3CCc2ccc(Cl)cc2)cc1`, the inhibition in experiment [1] came to 3%.
Take `Fc1ccc(CCSc2ncnc3[nH]cnc23)cc1`: in experiment [2], the IC50 came out at 0.39 µM. Further, the inhibition result in experiment [3] was “Active”.
`N#Cc1cccc(CSc2ncnc3[nH]cnc23)c1`: the IC50 in experiment [2] came to 0.34 µM.
As for `c1ccc(COc2[nH]cnc3ncnc2-3)cc1`, in experiment [2], the IC50 is 0.17 µM.
For `Brc1cccc(CSc2ncnc3sccc23)c1`, the inhibition in experiment [1] was 11%.
On the same count and under the same terms, the result for `Fc1ccc(CCSc2ncnc3c2ncn3CCc2ccc(F)cc2)cc1` reads 12%.
For the molecule `FC(F)(F)c1cccc(CSc2ncnc3[nH]cnc23)c1`, the IC50 in experiment [2] came to 0.32 µM. In experiment [3], the inhibition result is “Active”.
As to `COc1cccc(CSc2ncnc3[nH]cnc23)c1`, in experiment [2], the IC50 was determined as 0.24 µM. For the same molecule, the inhibition result in experiment [3] was “Active”.
In the case of `Clc1cccc(CCSc2ncnc3[nH]cnc23)c1`, in experiment [2], the IC50 stood at 0.3 µM. The inhibition result in experiment [3] was “Active”.
Taken in the same sequence, the figures for `Ic1ccccc1CSc1ncnc2[nH]cnc12` were 0.58 µM and “Active”.
In the case of `CC(=O)Nc1ccc(CSc2ncnc3[nH]cnc23)cc1`, the IC50 in experiment [2] amounted to 0.47 µM.
Take `Ic1ccccc1CSc1ncnc2c1ncn2Cc1ccccc1I`: the inhibition in experiment [1] came to 4%.
